# What was measured:
# Type in all cases: cell-based
# [1] = system: P388 murine leukemia cell line; experiment: Antiproliferative MTT assay, P388 cell line; conditions: P-388 cells, 48-h exposure
# Description: (§1) Extracts and compounds were analyzed as to their effects on proliferation of A549 human adenocarcinoma, PANC-1 human pancreatic and P388 murine leukemia cell lines. P388 cells were obtained from Dr. R. Camalier, National Cancer Institute, Bethesda, Md., and A549 and PANC-1 cells were obtained from American Type Culture Collection, Rockville, Md. All cell lines were maintained in Roswell Park Memorial Institute (RPMI) medium 1640 supplemented with 10% fetal bovine serum. All cell lines are cultured in plastic tissue culture flasks and kept in an incubator at 37° C. in humidified air containing 5% CO2. Prior to testing, antibiotic-free stock cultures of each of the cell lines were subcultured to 10^6 cells/ml by dilution in fresh growth medium at 2 to 3 day intervals.
# To assess the antiproliferative effects of extracts and compounds against the P388 cell line, 200 μl cultures (96-well tissue culture plates, Nunc, Denmark) are established at 1×10^5 cells/ml in drug-free medium or medium containing the test agent at 10.0, 1.0, 0.10 and 0.010 μg/ml. Solvent for all dilutions ethanol. All experimental cultures are initiated in medium containing Gentamycin sulfate (50 μg/ml; Schering Corporation, Kenilworth, N.J.). […]
# [2] = system: A549 human adenocarcinoma cell line; experiment: Antiproliferative MTT assay, A549 cell line; conditions: A549 cells, additional 48 hr exposure prior to MTT addition
# Description: as §1
# (§2) To assess the antiproliferative effects of extracts and compounds against the P388 cell line, 200 μl cultures (96-well tissue culture plates, Nunc, Denmark) are established at 1×10^5 cells/ml in drug-free medium or medium containing the test agent at 10.0, 1.0, 0.10 and 0.010 μg/ml. Solvent for all dilutions ethanol. […]
# (§3) Similar procedures are utilized for A549 and PANC-1 cells which require an additional 48 hr exposure prior to MTT addition. Results are expressed as percent inhibition compared to the negative (no drug) control. […]
# [3] = system: PANC-1 human pancreatic cell line; experiment: Antiproliferative MTT assay, PANC-1 cell line; conditions: PANC-1 cells, additional 48 hr exposure prior to MTT addition
# Description: as §1, §2, §3
compound,measurement,setting,value
C=C1C[C@@](C)(/C=C/C=C/CCCCCCCC)OC1=O [plakolide A],Activity (IC50 μg/ml),[1],1.09 µg/mL
same,Activity (IC50 μg/ml),[2],5.0 µg/mL
same,Activity (IC50 μg/ml),[3],3.78 µg/mL

# Source: patent publication US7053118B1, “Lactone compounds and methods of use” (Harbor Branch Oceanographic Institution, Inc., priority 2003, dated 2006)
